Laboratory results taken from BindingDB's records for doi:10.7270/Q2319T8T (The Scripps Research Institute Molecular Screening Center, 2007).

Target: Steroidogenic factor 1 (Homo sapiens, UniProt Q13285)
Assay: blockers of SF-1 LBD reporter transcription – cell-based, CHO-K1, Gal4-SF-1 LBD, luciferase luminescence, dose response (AID 600)
Conditions: not given

Chain of Steroidogenic factor 1 (Q13285 whole entry, the tested form may be a part): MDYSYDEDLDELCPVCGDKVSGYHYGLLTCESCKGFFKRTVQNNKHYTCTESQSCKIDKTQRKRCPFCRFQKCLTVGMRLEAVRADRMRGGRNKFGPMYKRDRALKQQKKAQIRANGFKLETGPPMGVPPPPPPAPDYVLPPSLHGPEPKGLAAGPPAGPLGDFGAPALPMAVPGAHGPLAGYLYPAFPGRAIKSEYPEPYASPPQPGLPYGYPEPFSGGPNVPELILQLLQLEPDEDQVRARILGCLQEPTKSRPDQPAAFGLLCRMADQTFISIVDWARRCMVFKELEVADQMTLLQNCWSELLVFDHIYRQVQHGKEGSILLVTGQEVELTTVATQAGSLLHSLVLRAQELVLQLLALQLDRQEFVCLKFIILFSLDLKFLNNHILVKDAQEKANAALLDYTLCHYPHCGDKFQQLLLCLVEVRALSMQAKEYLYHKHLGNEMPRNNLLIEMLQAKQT

Row | IC50 [µM] | Structure (SMILES)
1 | > 3.67 | Cn1c(SC2=CS(=O)(=O)c3ccccc32)nc2ccccc21 [2-(1,1-Dioxo-1H-1lambda*6*-benzo[b]thiophen-3-ylsulfanyl)-1-methyl-1H-benzoimidazole]
2 | 2.12 | O=c1c2ccccc2cnn1-c1nc2ccccc2s1 [2-(1,3-benzothiazol-2-yl)-1-phthalazinone]
3 | 6.81 | c1ccc2nc(-c3nc4ccccc4o3)ccc2c1 [2-(1,3-benzoxazol-2-yl)quinoline]
4 | < 0.00503 | CCn1c(C)nc2cc(-c3nc4n(n3)Cc3ccccc3-4)ccc21 [2-(1-ethyl-2-methyl-5-benzimidazolyl)-5H-[1,2,4]triazolo[5,1-a]isoindole]
5 | 4.03 | O=C1c2ccccc2C(=O)C1c1nccc2ccccc12 [2-(1-isoquinolinyl)indene-1,3-dione]
6 | > 3.67 | CCCOc1ccc(-c2nnc(-c3ccco3)o2)cc1 [2-(2-furanyl)-5-(4-propoxyphenyl)-1,3,4-oxadiazole]
7 | 5.29 | CCOc1ccc(-c2nnc(-c3ccco3)o2)cc1 [2-(2-furyl)-5-p-phenetyl-1,3,4-oxadiazole]
8 | > 3.67 | Nc1cccc(-c2nc3ccc(N)cc3s2)c1 [2-(3-Amino-phenyl)-benzothiazol-6-ylamine]
9 | 9.18 | O=C(Cc1ccc(Cl)cc1)Nc1ccc(-c2nnc(-c3ccco3)o2)cc1 [2-(4-chlorophenyl)-N-[4-[5-(2-furanyl)-1,3,4-oxadiazol-2-yl]phenyl]acetamide]
10 | 8.67 | Cc1ccc(N2C(=O)c3ccccc3C2O)nc1 (configuration not stated) [2-(5-methylpyridin-2-yl)-3-oxidanyl-3H-isoindol-1-one]
11 | 1.36 | c1ccc(-c2noc(-c3ccc4c(c3)OCO4)n2)nc1 [2-[5-(1,3-benzodioxol-5-yl)-1,2,4-oxadiazol-3-yl]pyridine]
12 | 0.7 | c1ccc(-c2noc(-c3ccc4ccccc4c3)n2)nc1 [2-[5-(2-naphthyl)-1,2,4-oxadiazol-3-yl]pyridine]
13 | > 3.67 | Clc1cccc(-c2nc(-c3ccccn3)no2)c1 [2-[5-(3-Chloro-phenyl)-[1,2,4]oxadiazol-3-yl]-pyridine]
14 | 0.713 | O=S1(=O)C=C(Sc2nc3ccccc3s2)c2ccccc21 [2-[(1,1-dioxido-1-benzothien-3-yl)thio]-1,3-benzothiazole]
15 | > 0.00503 | Cc1cc(C=c2sc3nc4ccccc4n3c2=O)c(C)n1-c1ccccn1 [2-[(2,5-dimethyl-1-pyridin-2-yl-pyrrol-3-yl)methylidene]-[1,3]thiazolo[3,2-a]benzimidazol-1-one]

The remaining lines, values behind:

Row | Structure (SMILES) | IC50 [µM]
16 | COc1ccc(OC)c(NC(=O)CSc2nnnn2-c2ccc3c(c2)OCO3)c1 [2-(1-Benzo[1,3]dioxol-5-yl-1H-tetrazol-5-ylsulfanyl)-N-(2,5-dimethoxy-phenyl)-acetamide] | 2.35
17 | CCN1C=CC(=C2C(=O)c3ccccc3C2=O)C=C1 [2-(1-ethyl-4-pyridinylidene)indene-1,3-dione] | 0.954
18 | CC1(C)CC(=O)C2=C(C1)Oc1nc3ccccc3cc1C2C(C#N)C#N (configuration not stated) [2-(1-keto-3,3-dimethyl-4,12-dihydro-2H-chromeno[2,3-b]quinolin-12-yl)malononitrile] | 7.53
19 | c1c2c(cc3sc(N4CCCCC4)nc13)OCCO2 [2-(1-piperidinyl)-6,7-dihydro-[1,4]dioxino[2,3-f][1,3]benzothiazole] | 3.91
20 | CCCN1C=CC(=C2C(=O)c3ccccc3C2=O)C=C1 [2-(1-propyl-4-pyridinylidene)indene-1,3-dione] | 0.363
21 | Cc1cnc(NC(=O)COc2ccccc2Cl)s1 [2-(2-chloranylphenoxy)-N-(5-methyl-1,3-thiazol-2-yl)ethanamide] | > 1.22
22 | c1ccc2c(c1)CCN(c1nc3cc4c(cc3s1)OCCO4)C2 [2-(3,4-dihydro-1H-isoquinolin-2-yl)-6,7-dihydro-[1,4]dioxino[2,3-f][1,3]benzothiazole] | 5.34
23 | COc1ccc(CC(=O)Nc2cccc(-c3nnc(-c4cccc(C)c4)o3)c2)cc1OC [2-(3,4-dimethoxyphenyl)-N-[3-[5-(3-methylphenyl)-1,3,4-oxadiazol-2-yl]phenyl]acetamide] | > 3.67
24 | COc1ccc(CC(=O)Nc2ccc(-c3nnc(-c4ccccc4)o3)cc2)cc1OC [2-(3,4-dimethoxyphenyl)-N-[4-(5-phenyl-1,3,4-oxadiazol-2-yl)phenyl]acetamide] | 2.44
25 | CCOC(=O)c1cnc(-n2nc(C)cc2C)nc1NC(C)c1ccccc1 (configuration not stated) [2-(3,5-dimethyl-1-pyrazolyl)-4-(1-phenylethylamino)-5-pyrimidinecarboxylic acid ethyl ester] | 6.88
26 | CCOc1ccc(Nc2cc(C)nc(-n3nc(C)cc3C)n2)cc1 [2-(3,5-dimethyl-1-pyrazolyl)-N-(4-ethoxyphenyl)-6-methyl-4-pyrimidinamine] | 7.83
27 | Cc1nnc(Sc2nc(Sc3nnc(C)s3)nc(N3CCN(C)CC3)n2)s1 [2-(4-Methyl-piperazin-1-yl)-4,6-bis-(5-methyl-[1,3,4]thiadiazol-2-ylsulfanyl)-[1,3,5]triazine] | 2.64
28 | COc1ccc(-c2cc3nc4n(c(=O)c3s2)CCC4)cc1 [2-(4-methoxyphenyl)-6,7-dihydropyrrolo[1,2-a]thieno[3,2-d]pyrimidin-9(5H)-one] | 4.32
29 | COc1ccc(-c2cc3nc4n(c(=O)c3s2)CCOC4)cc1 [2-(4-methoxyphenyl)-7,8-dihydro-5H-thieno[1,2]pyrimido[4,5-a][1,4]oxazin-10-one] | 6.7
30 | CC1CCN(c2nc3ccc(C(=O)O)cc3s2)CC1 [2-(4-methyl-1-piperidinyl)-1,3-benzothiazole-6-carboxylic acid] | 2.25
31 | c1c2c(cc3sc(N4CCOCC4)nc13)OCCO2 [2-(4-morpholinyl)-6,7-dihydro-[1,4]dioxino[2,3-f][1,3]benzothiazole] | > 3.67
32 | CCOc1ccc(-c2nc(CSCC(=O)NCc3ccco3)c(C)o2)cc1 [2-({[2-(4-ethoxyphenyl)-5-methyl-1,3-oxazol-4-yl]methyl}thio)-N-(2-furylmethyl)acetamide] | 0.189
33 | CCOc1ccc(-c2nc(CSCC(=O)NCCN3CCOCC3)c(C)o2)cc1 [2-({[2-(4-ethoxyphenyl)-5-methyl-1,3-oxazol-4-yl]methyl}thio)-N-(2-morpholin-4-ylethyl)acetamide] | 4.36
34 | CCc1ccc(-c2nc(CSCC(=O)NCCCN3CCCC3=O)c(C)o2)cc1 [2-({[2-(4-ethylphenyl)-5-methyl-1,3-oxazol-4-yl]methyl}thio)-N-[3-(2-oxopyrrolidin-1-yl)propyl]acetamide] | 4.32
35 | COc1cc(CC(NC(C)=O)C(=O)NC2CCN(c3nc(C)cc(C)c3C#N)CC2)cc(OC)c1 (configuration not stated) [2-Acetylamino-N-(3'-cyano-4',6'-dimethyl-3,4,5,6-tetrahydro-2H-[1,2']bipyridinyl-4-yl)-3-(3,5-dimethoxy-phenyl)-propionamide] | > 33
36 | Nc1nc(Cl)nc2c1ncn2[C@H]1C[C@H](O)[C@@H](CO)O1 [2-CHLORO-2'-DEOXYADENOSINE] | 0.454
37 | Cc1cc(C)n(-c2nc(NC(C)(C)C)nc(NC(C)(C)C)n2)n1 [2-N,4-N-ditert-butyl-6-(3,5-dimethylpyrazol-1-yl)-1,3,5-triazine-2,4-diamine] | 8.2
38 | CCCCOc1ccccc1NC(=O)Cn1c(-c2nonc2N)nc2ccccc21 [2-[2-(4-amino-1,2,5-oxadiazol-3-yl)-1-benzimidazolyl]-N-(2-butoxyphenyl)acetamide] | > 3.67
39 | CN1CCN(C(=O)COc2ccc(-c3nc4ccccc4s3)cc2)CC1 [2-[4-(1,3-benzothiazol-2-yl)phenoxy]-1-(4-methyl-1-piperazinyl)ethanone] | 7.32
40 | O=C(CSc1nnnn1C1CC2CCC1C2)Nc1ccnc2ccccc12 (configuration not stated) [2-[(1-bicyclo[2.2.1]hept-2-yl-1H-tetrazol-5-yl)thio]-N-4-quinolinylacetamide] | 0.977
41 | COC(=O)c1sc(NC(=O)c2ccc(OC)cc2OC)nc1C [2-[(2,4-dimethoxybenzoyl)amino]-4-methyl-thiazole-5-carboxylic acid methyl ester] | 2.86
42 | Cc1cccc(N2CCN(C(=O)CSCc3c(C)noc3C)CC2)c1C [2-[(3,5-dimethyl-1,2-oxazol-4-yl)methylsulfanyl]-1-[4-(2,3-dimethylphenyl)piperazin-1-yl]ethanone] | 0.876
43 | Cc1cccc2cc(C#N)c(SCC(=O)N3CC(=O)Nc4ccccc43)nc12 [2-[[2-keto-2-(3-keto-2,4-dihydroquinoxalin-1-yl)ethyl]thio]-8-methyl-quinoline-3-carbonitrile] | > 3.67
44 | CCOC(=O)CSc1nc2cc(C(=O)NCc3ccco3)ccc2c(=O)n1-c1ccc(F)cc1 [2-[[3-(4-fluorophenyl)-7-(2-furfurylcarbamoyl)-4-keto-quinazolin-2-yl]thio]acetic acid ethyl ester] | > 11

Same assay, conditions: inactive by the depositor's call

Row | IC50 [µM] | Structure (SMILES)
45 | 10.4 | Cn1c(-c2ccco2)nc2cc3ccccc3cc21 [2-(2-furanyl)-3-methylbenzo[f]benzimidazole]
46 | 18.3 | COc1ccc(CC(=O)Nc2ccc(-c3nnc(-c4ccccc4)o3)cc2)cc1 [2-(4-methoxyphenyl)-N-[4-(5-phenyl-1,3,4-oxadiazol-2-yl)phenyl]acetamide]

The remaining lines, values behind:

Row | Structure (SMILES) | IC50 [µM]
47 | COc1ccccc1CC(=O)N1CCN(c2cccc(C(F)(F)F)c2)CC1 [2-(2-methoxyphenyl)-1-[4-[3-(trifluoromethyl)phenyl]-1-piperazinyl]ethanone] | 19.7
48 | COc1ccc(Nc2cc(C)nc(-n3nc(C)cc3C)n2)cc1 [2-(3,5-dimethyl-1-pyrazolyl)-N-(4-methoxyphenyl)-6-methyl-4-pyrimidinamine] | 12.5
49 | Cc1csc(NC(=O)Cc2nn(C)c(=O)c3ccccc23)n1 [2-(3-methyl-4-oxidanylidene-phthalazin-1-yl)-N-(4-methyl-1,3-thiazol-2-yl)ethanamide] | 34.3
50 | O=C(CSC1=NCCS1)Nc1ccnc2ccccc12 [2-(4,5-dihydro-1,3-thiazol-2-ylsulfanyl)-N-quinolin-4-yl-ethanamide] | 15.1
51 | Cc1cc(N2CCN(c3nc4ccccc4s3)CC2)n2ncnc2n1 [2-[4-(5-methyl-[1,2,4]triazolo[1,5-a]pyrimidin-7-yl)-1-piperazinyl]-1,3-benzothiazole] | 22.9
52 | CCc1ccc(-c2nc(CSCC(=O)N3CCN(c4ncccn4)CC3)c(C)o2)cc1 [2-[[2-(4-ethylphenyl)-5-methyl-1,3-oxazol-4-yl]methylsulfanyl]-1-(4-pyrimidin-2-ylpiperazin-1-yl)ethanone] | 37.1
